In patent US20070054887A1, “Methods for treating bladder dysfunction” (BioXell S.p.A, priority 2003, published 2007):
Read-outs that look alike come from different tables or passages of the source.

Key:
[1] = maximum tolerated dose (MTD) in rats; type: in vivo
From the text: The maximum tolerated dose (MTD) in rats is also listed for each compound.

[2] = tested on: human bladder cells; experiment: inhibition of basal human bladder cell growth; type: cell-based; details: for IC50: Homo sapiens

C=C1C(=CC=C2CCCC3(C)C2CCC3C2(CC#CC(C)(C)O)CC2)CC(OC(C)=O)CC1OC(C)=O (centres unmarked) [1,3-Di-O-acetyl-1,25-dihydroxy-20-cyclopropyl-23-yne-cholecalciferol]
MTD [1]: 30 µg/kg | −Log IC50 ([2]; basal human bladder cell growth, cells not stimulated with testosterone): >2

CC(=O)OC1C/C(=C/C=C2\CCC[C@]3(C)C(C(C)CC#CC(C)(C)O)=CCC23)C[C@@H](OC(C)=O)C1 (some centres unmarked) [1,3-Di-O-Acetyl-1,25-dihydroxy-16-ene-23-yne-19-nor-cholecalciferol]
MTD ([1]; rat, in vivo, read-out: MTD): 30 µg/kg | IC50 [2]: 186 µM

C=C1/C(=C\C=C2/CCC[C@]3(C)C(C(C)CCCC(C)(C)O)=CCC23)CC(OC(C)=O)C[C@@H]1OC(C)=O (some centres unmarked) [1,3-Di-O-acetyl-1,25-dihydroxy-16-ene-cholecalciferol]
MTD ([1]; rat, in vivo, read-out: MTD): 1 µg/kg | IC50 [2]: 0.000224 µM

C=C1/C(=C\C=C2/CCC[C@]3(C)C(C4(C/C=C/C(O)(C(F)(F)F)C(F)(F)F)CC4)=CCC23)CC(O)C[C@@H]1O (stereo partly drawn) [1α,25-Dihydroxy-16-ene-20-cyclopropyl-23,24-E-ene-26,27-hexafluoro-cholecalciferol]
MTD ([1]; rat, in vivo, read-out: MTD): 0.3 µg/kg | IC50 [2]: 1.58e-05 µM

C=C1/C(=C\C=C2/CCC[C@]3(C)C(C4(C/C=C\C(O)(C(F)(F)F)C(F)(F)F)CC4)=CCC23)CC(O)C[C@@H]1O (stereo partly drawn) [1α,25-Dihydroxy-16-ene-20-cyclopropyl-23,24-Z-ene-26,27-hexafluoro-cholecalciferol]
MTD ([1]; rat, in vivo, read-out: MTD): 1 µg/kg | IC50 [2]: 0.0794 µM

C=C1/C(=C\C=C2/CCC[C@@]3(C)C2CCC3C(CCCC(C)(C)O)CCC(O)C(C)(C)O)C[C@@H](O)C[C@@H]1O (stereo partly drawn) [1,25-Dihydroxy-21-(2R,3-dihydroxy-3-methyl-butyl)-20R-Cholecalciferol]
MTD ([1]; rat, in vivo, read-out: MTD): 30 µg/kg | IC50 [2]: 24 µM

CC(=O)OC1C/C(=C/C=C2\CCC[C@@]3(C)C2CCC3C2(CC#CC(O)(C(F)(F)F)C(F)(F)F)CC2)C[C@@H](OC(C)=O)C1 (some centres unmarked) [1,3-Di-O-acetyl-1,25-dihydroxy-20-cyclopropyl-23-yne-26,27-hexafluoro-19-nor-cholecalciferol]
MTD ([1]; rat, in vivo, read-out: MTD): 10 µg/kg | IC50 [2]: 0.0012 µM

C=C1/C(=C\C=C2/CCC[C@@]3(C)C2CCC3C2(CCCC(C)(C)O)CC2)CC(OC(C)=O)C[C@@H]1OC(C)=O (some centres unmarked) [1,3-Di-O-acetyl-1,25-dihydroxy-20-cyclopropyl-cholecalciferol]
MTD ([1]; rat, in vivo, read-out: MTD): 30 µg/kg | IC50 [2]: 0.398 µM

CC(=O)OC1C/C(=C/C=C2\CCC[C@@]3(C)C2CCC3C2(C/C=C/C(O)(C(F)(F)F)C(F)(F)F)CC2)C[C@@H](OC(C)=O)C1 (some centres unmarked) [1,3-Di-O-acetyl-1,25-dihydroxy-20-cyclopropyl-23E-ene-26,27-hexafluoro-19-nor-cholecalciferol]
MTD ([1]; rat, in vivo, read-out: MTD): 0.3 µg/kg | IC50 [2]: 0.00158 µM

CC(=O)OC1C/C(=C/C=C2\CCC[C@@]3(C)C2CCC3C2(CC#CC(OC(C)=O)(C(F)(F)F)C(F)(F)F)CC2)C[C@@H](OC(C)=O)C1 (some centres unmarked) [1,3,25-Tri-O-acetyl-1,25-dihydroxy-20-cyclopropyl-23-yne-26,27-hexafluoro-19-nor-cholecalciferol]
MTD ([1]; rat, in vivo, read-out: MTD): 10 µg/kg | IC50 [2]: 0.0398 µM

C=C1/C(=C\C=C2/CCC[C@]3(C)C(C4(CC#CC(O)(C(F)(F)F)C(F)(F)F)CC4)=CCC23)CC(O)C[C@@H]1O (stereo partly drawn) [1α,25-Dihydroxy-16-ene-20-cyclopropyl-23,24-yne-26,27 hexafluoro cholecalciferol]
MTD ([1]; rat, in vivo, read-out: MTD): 0.3 µg/kg | IC50 [2]: 3550 µM

[2H]C([2H])([2H])C(O)(CCC[C@@H](CC#CC(O)(C(F)(F)F)C(F)(F)F)C1CCC2/C(=C/C=C3C[C@@H](O)C[C@H](O)C3)CCC[C@@]21C)C([2H])([2H])[2H] (stereo partly drawn) [1,25-Dihydroxy-21(3-hydroxy-3-trifluoromethyl-4-trifluoro-butynyl)-26,27-hexadeutero-19-nor-20S-cholecalciferol]
MTD ([1]; rat, in vivo, read-out: MTD): 0.2 µg/kg | IC50 [2]: 31600 µM

C=C1/C(=C\C=C2/CCC[C@]3(C)C(C4(CCCC(C)(C)O)CC4)=CCC23)CC(O)C[C@@H]1O (stereo partly drawn) [1α,25-Dihydroxy-16-ene-20-cyclopropyl-cholecalciferol]
MTD ([1]; rat, in vivo, read-out: MTD): 1 µg/kg | IC50 [2]: 0.017 µM

C=C1/C(=C\C=C2/CCC[C@]3(C)C(C(C)C/C=C/C(C)(C)O)=CCC23)CC(OC(C)=O)C[C@@H]1OC(C)=O (some centres unmarked) [1,3-Di-O-acetyl-1,25-dihydroxy-16,23E-diene-cholecalciferol]
MTD ([1]; rat, in vivo, read-out: MTD): 3 µg/kg | IC50 [2]: 4.17e-06 µM

C=C1/C(=C\C=C2/CCC[C@]3(C)C(C(C)CC#CC(C)(C)O)=CCC23)CC(OC(C)=O)C[C@@H]1OC(C)=O (some centres unmarked) [1,3-Di-O-acetyl-1,25-dihydroxy-16-ene-23-yne-cholecalciferol]
MTD ([1]; rat, in vivo, read-out: MTD): 10 µg/kg | IC50 [2]: 5.01e-05 µM

CC(=O)O[C@@H]1CC(=C/C=C2\CCC[C@]3(C)C([C@H](C)CCC(=O)C(C)(C)O)=CCC23)C[C@@H](OC(C)=O)C1 (some centres unmarked) [1,3-O-Diacetyl-1,25-Dihydroxy-16-ene-24-Keto-19-nor-Cholecalciferol]
MTD ([1]; rat, in vivo, read-out: MTD): 300 µg/kg | IC50 [2]: 0.617 µM

C=C1/C(=C\C=C2/CCC[C@@]3(C)C2CCC3C(C)CC#CC(C)(C)O)CC(OC(C)=O)C[C@@H]1OC(C)=O (some centres unmarked) [1,3-Di-O-acetyl-1,25-dihydroxy-23-yne-cholecalciferol]
MTD ([1]; rat, in vivo, read-out: MTD): 1 µg/kg | IC50 [2]: < 10000 µM

CC(C)(O)CCCC(CCCC(C)(C)O)[C@H]1CC[C@H]2/C(=C/C=C3C[C@@H](O)C[C@H](O)C3)CCC[C@]12C [1,25-dihydroxy-21-(3-hydroxy-3-methylbutyl)-19-nor-cholecalciferol]
IC50 [2]: 9.77 µM

C=C1/C(=C\C=C2/CCC[C@]3(C)C(C(C)CC#CC(O)(C(F)(F)F)C(F)(F)F)=CCC23)CC(OC(C)=O)C[C@@H]1OC(C)=O (some centres unmarked) [1,3-Di-O-acetyl-1,25-dihydroxy-16-ene-23-yne-26,27-hexafluoro-cholecalciferol]
MTD ([1]; rat, in vivo, read-out: MTD): 10 µg/kg | IC50 [2]: 0.002 µM

CC(=O)OC1C/C(=C/C=C2\CCC[C@]3(C)C(C(C)CCCC(C)(C)O)=CCC23)C[C@@H](OC(C)=O)C1 (some centres unmarked) [1,3-Di-O-acetyl-1,25-dihydroxy-16-ene-19-nor-cholecalciferol]
MTD ([1]; rat, in vivo, read-out: MTD): 3 µg/kg | IC50 [2]: 0.000631 µM

CC(=O)OC1C/C(=C/C=C2\CCC[C@@]3(C)C2CCC3C2(C/C=C\C(O)(C(F)(F)F)C(F)(F)F)CC2)C[C@@H](OC(C)=O)C1 (some centres unmarked) [1,3-Di-O-acetyl-1,25-dihydroxy-20-cyclopropyl-23Z-ene-26,27-hexafluoro-19-nor-cholecalciferol]
MTD ([1]; rat, in vivo, read-out: MTD): 10 µg/kg | IC50 [2]: 0.2 µM
